Laboratory results published in patent US5354676A, “Recombinant modified thermostable NAD-dependent dehydrogenases and process for their production” (The University of Bristol, priority 1989, dated 1994).

Legend:
[1] = target: T1, Bacillus stearothermophilus NAD-dependent L-lactate dehydrogenase, wild type (WT) (Geobacillus stearothermophilus, UniProt P00344); assay: biochemical; conditions: pH 6, read-out: stimulation in kcat/Km by FBP
T1 construct: made in house; host or cells: E. coli
Experimental: (§1) Steady-state reaction rates were determined by following the change in A340 due to the consumption of NADH. […] The buffer for all experiments was 100rmM triethanolamine-HC1/NaOH,pH 6.

[2] = target: T2, Bacillus stearothermophilus L-lactate dehydrogenase variant MVS (102-5 QKP→MVS) (Geobacillus stearothermophilus, UniProt P00344, K87V/P88S/Q86M); assay: biochemical; conditions: pH 6, read-out: stimulation in kcat/Km by FBP
T2 construct: made in house; host or cells: E. coli TG2, vector pKK223-3
Experimental: as §1

[3] = target: T3, Bacillus stearothermophilus L-lactate dehydrogenase variant MVS/GG (102-5 QKP→MVS and 235-6 AA→GG) (Geobacillus stearothermophilus, UniProt P00344, A222G/A223G/K87V/P88S/Q86M); assay: biochemical
T3 construct: made in house; host or cells: E. coli TG2, vector pKK223-3
Experimental: as §1

[4] = target: T4, Bacillus stearothermophilus L-lactate dehydrogenase variant GG (235-6 AA→GG) (Geobacillus stearothermophilus, UniProt P00344, A222G/A223G); assay: biochemical; conditions: pH 6, read-out: stimulation in kcat/Km by FBP
Experimental: as §1

[5] = target: T4, Bacillus stearothermophilus L-lactate dehydrogenase variant GG (235-6 AA→GG); conditions: No FBP, pH 6
Experimental: as §1

T3 sequence (P00344 whole entry Q86M/K87V/P88S/A222G/A223G, the tested form may be a part): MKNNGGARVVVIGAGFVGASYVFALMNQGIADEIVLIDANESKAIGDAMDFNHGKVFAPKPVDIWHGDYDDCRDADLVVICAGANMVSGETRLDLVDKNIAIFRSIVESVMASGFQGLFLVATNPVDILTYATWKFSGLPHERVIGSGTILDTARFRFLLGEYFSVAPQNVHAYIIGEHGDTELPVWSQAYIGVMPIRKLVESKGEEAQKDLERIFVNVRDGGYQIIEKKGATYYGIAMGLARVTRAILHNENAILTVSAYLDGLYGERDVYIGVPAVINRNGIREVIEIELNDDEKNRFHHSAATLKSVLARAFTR
T4 sequence (P00344 whole entry A222G/A223G, the tested form may be a part): as the sequence (P00344 whole entry Q86M/K87V/P88S/A222G/A223G, the tested form may be a part) above, with M86Q, V87K, S88P counted along it
T2 sequence (P00344 whole entry Q86M/K87V/P88S): as the sequence (P00344 whole entry Q86M/K87V/P88S/A222G/A223G, the tested form may be a part) above, with G222A, G223A counted along it
T1 sequence (P00344 whole entry): as the sequence (P00344 whole entry Q86M/K87V/P88S/A222G/A223G, the tested form may be a part) above, with M86Q, V87K, S88P, G222A, G223A counted along it

| Structure (SMILES) | fold induction at 5000 µM [1] | fold induction at 5000 µM [2] | fold induction at 5000 µM ([3]; pH 6, read-out: stimulation in kcat/Km by FBP) | fold induction at 5000 µM [4] | Km [5] | Km ([3]; MVS/GG, No FBP, pH 6) |
| --- | --- | --- | --- | --- | --- | --- |
| O=C(COP(=O)(O)O)[C@@H](O)[C@H](O)[C@H](O)COP(=O)(O)O [FBP, fructose-1,6-bisphosphate] | 50 | 100 | 16 | 60 | – | – |
| CC(=O)C(=O)O [Pyruvate] | – | – | – | – | > 50 mM | > 50 mM |
